{"source": "patent US20170135989A1", "about": "“ALLISARTAN ISOPROXIL SOLID DISPERSION AND PHARMACEUTICAL COMPOSITION” (SHENZHEN SALUBRIS PHARMACEUTICALS CO., LTD, priority 2014, published 2017)", "origin": "cited, not measured here", "key": {"[1]": {"details": "from CN200680000397.8"}, "angiotensin II receptor": {"target": "T1, angiotensin II receptor (Homo sapiens, UniProt P30556)", "T1 sequence (P30556 1-359)": "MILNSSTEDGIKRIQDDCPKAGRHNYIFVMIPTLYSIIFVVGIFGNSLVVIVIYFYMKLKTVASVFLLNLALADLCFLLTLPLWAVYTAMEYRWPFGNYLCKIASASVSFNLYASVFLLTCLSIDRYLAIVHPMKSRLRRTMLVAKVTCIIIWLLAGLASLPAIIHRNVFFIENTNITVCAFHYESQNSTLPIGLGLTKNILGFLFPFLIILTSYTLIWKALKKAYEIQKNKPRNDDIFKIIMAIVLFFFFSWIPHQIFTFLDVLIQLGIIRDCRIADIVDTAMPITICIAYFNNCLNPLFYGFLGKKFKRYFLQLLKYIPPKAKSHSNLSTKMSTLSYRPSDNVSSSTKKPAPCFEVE", "details": "from CN200680000397.8; compared with products of the same type (such as losartan)"}}, "data": [{"smiles": "CCCCc1nc(Cl)c(C(=O)OCOC(=O)OC(C)C)n1Cc1ccc(-c2ccccc2-c2nnn[nH]2)cc1", "note": "[Allisartan isoproxil, 2-butyl-4-chloro-1-[2′-(1H-tetrazol-5-yl)-1,1′-biphenyl-methyl]-imidazole-5-carboxylic acid, 1-[(isopropoxy)-carbonyloxy]-, methyl ester]", "values": [{"measurement": "Solubility in water", "value": "low"}, {"measurement": "Toxicity", "setting": "[1]", "value": "low toxicity"}, {"measurement": "Antihypertensive effect", "setting": "angiotensin II receptor", "value": "better antihypertensive effect than products of the same type"}]}]}
